Assay results published in patent publication US20180273528A1 (LES LABORATOIRES SERVIER, priority 2015, published 2018).

Biological target: DYRK1A (Homo sapiens, UniProt Q13627)
Assay: Cellular DYRK1 autophosphorylation assay in U2-OS cells
Assay type: cell-based
Set-up: full-length, wild-type human DYRK1A (NM_001396) with an HA tag; expressed in transfected cells; host or cells: human U2-OS osteosarcoma cells, transient transfection of a pcDNA3.1 plasmid
Settings: U2-OS cells transfected with HA-tagged human DYRK1A, 5 hours exposure; read-out: IC50 (μM) P-Ser520-Dyrk1A -Cell assay
Procedure, shortened: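 U2-OS cells treated with a compound concentration range for 5 h. Phospho-Ser520-DYRK1A measured by western blot densitometry or Mesoscale ELISA. IC50 from dose-response curves; for blots, ratio of phospho-Ser520 to total DYRK1A signal.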

Structure (SMILES)	IC50
Cc1nc2ccc(-c3cc(N)nc(N)c3)nc2n1C[C@@H](C)Oc1ccccc1 (single isomer, unassigned) [Example 106]	0.073 µM
Cc1nc2ccc(-c3cc(N)nc(N)c3)nc2n1C1CC1 [Example 9, 4-(3-cyclopropyl-2-methyl-3H-imidazo[4,5-b]pyridin-5-yl)pyridine-2,6-diamine]	0.09 µM
Cc1nc2ccc(-c3cc(N)nc(N)c3)nc2n1Cc1ccoc1 [Example 42, 4-[3-(furan-3-ylmethyl)-2-methyl-3H-imidazo[4,5-b]pyridin-5-yl]pyridine-2,6-diamine]	0.045 µM
Cc1nc2ccc(-c3cc(N)nc(N)c3)nc2n1CCCC(F)(F)F [Example 71, 4-[2-methyl-3-(4,4,4-trifluorobutyl)-3H-imidazo[4,5-b]pyridin-5-yl]pyridine-2,6-diamine]	0.047 µM
Cc1nc2ccc(-c3cc(N)nc(N)c3)nc2n1C1CC(F)(F)C1 [Example 101, 4-[3-(3,3-difluorocyclobutyl)-2-methyl-3H-imidazo[4,5-b]pyridin-5-yl]pyridine-2,6-diamine]	0.006 µM
Cc1nc2ccc(-c3cc(N)nc(N)c3)nc2n1C1CC(F)C1 (stereo not shown) [Example 103, 4-[3-(3-fluorocyclobutyl)-2-methyl-3H-imidazo[4,5-b]pyridin-5-yl]pyridine-2,6-diamine]	0.014 µM
CCn1c(C)nc2ccc(-c3cc(N)nc(N)c3)nc21 [Example 154, 4-(3-ethyl-2-methyl-3H-imidazo[4,5-b]pyridin-5-yl)pyridine-2,6-diamine]	0.02 µM
